What was measured:
[1] = molecular target: CDK2 (Homo sapiens, UniProt P24941); set-up: method as in earlier work; settings: Table S1; cited from earlier work
[2] = molecular target: T1, ITK (Homo sapiens, UniProt Q08881); experiment: KINOMEscan panel screen; format: binding; settings: read-out: Percent Control(%)
T1 construct: purchased DiscoveRx KINOMEscan (Ambit Biosciences)

[3] = molecular target: T2, SYK (Homo sapiens, UniProt P43405); experiment: KINOMEscan panel screen; format: binding; settings: read-out: Percent Control(%)
T2 construct: purchased DiscoveRx KINOMEscan (Ambit Biosciences)

[4] = test system: MV4-11 bone marrow transplant; experiment: MV4-11 bone marrow engraftment model; format: in vivo, NOD-SCID mice; settings: for mean survival time (MST): vehicle 51 days
Protocol: Finally, the influence of SKLB-677 on survival time was examined using a bone marrow (BM) transplant model of MV4-11. In the vehicle control group, the mean survival time (MST) was 51 days, with all animals expired by day 58.
NOD-SCID mice were pretreated with cyclophosphamide by intraperitoneal injection of 150 mg/kg/d for 2 days. Following a 24-hour rest period, the mice were intravenously injected with 8 × 10^6 MV4-11 cells per mouse via the tail vein. From the day 21 after inoculation, SKLB-677 or vehicle was administered orally once a day for 30 days.
Supplementary Figure S9. NOD- SC ID mice were intravenousl y inject ed with 8×10^6 MV4-11 cells per mouse via the tail vein. Oral administration of S K LB -677 at 10 mg/kg/d was initiated on day 21 after the inoculati on. Mouse ( 3mice per group) thigh femurs were collected for immunohistochemical Ki67 anal ysis after 6 d a ys of […]
regression of bone marrow tumor. Scale bar, 100μm.
(1 picture or pasted object on this page, not shown here)

[5] = molecular target: T3, PFTAIRE2 (Homo sapiens, UniProt Q96Q40); experiment: KINOMEscan panel screen; format: binding; settings: read-out: Percent Control(%)
T3 construct: purchased DiscoveRx KINOMEscan (Ambit Biosciences)

[6] = molecular target: T4, ABL1(F317L)-nonphosphorylated (Homo sapiens, UniProt P00519, F317L); experiment: KINOMEscan panel screen; format: binding; settings: read-out: Percent Control(%)
T4 construct: purchased DiscoveRx KINOMEscan (Ambit Biosciences)

[7] = molecular target: T5, FLT4 (Homo sapiens, UniProt P35916); experiment: KINOMEscan panel screen; format: binding; settings: read-out: Percent Control(%)
T5 construct: purchased DiscoveRx KINOMEscan (Ambit Biosciences)

[8] = molecular target: T6, WNK3 (Homo sapiens, UniProt Q9BYP7); experiment: KINOMEscan panel screen; format: binding; settings: read-out: Percent Control(%)
T6 construct: purchased DiscoveRx KINOMEscan (Ambit Biosciences)

[9] = molecular target: T7, FLT3(N841I) (Homo sapiens, UniProt P36888, N841I); experiment: KINOMEscan panel screen; format: binding; settings: read-out: Percent Control(%)
T7 construct: purchased DiscoveRx KINOMEscan (Ambit Biosciences)

[10] = molecular target: T8, EGFR(L858R) (Homo sapiens, UniProt P00533, L858R); experiment: KINOMEscan panel screen; format: binding; settings: read-out: Percent Control(%)
T8 construct: purchased DiscoveRx KINOMEscan (Ambit Biosciences)

[11] = molecular target: T9, ICK (Homo sapiens, UniProt Q9UPZ9); experiment: KINOMEscan panel screen; format: binding; settings: read-out: Percent Control(%)
T9 construct: purchased DiscoveRx KINOMEscan (Ambit Biosciences)

[12] = molecular target: T10, TIE2 (Homo sapiens, UniProt Q02763); experiment: KINOMEscan kinase binding assay (Kd)
T10 construct: purchased DiscoveRx KINOMEscan (Ambit Biosciences)

[13] = molecular target: T11, PRKR (Homo sapiens, UniProt P19525); experiment: KINOMEscan panel screen; format: binding; settings: read-out: Percent Control(%)
T11 construct: purchased DiscoveRx KINOMEscan (Ambit Biosciences)

[14] = molecular target: T12, DCLK1 (Homo sapiens, UniProt O15075); experiment: KINOMEscan kinase binding assay (Kd)
T12 construct: purchased Ambit Biosciences (KINOMEscan)

[15] = molecular target: T13, MAP4K4 (Homo sapiens, UniProt O95819); experiment: KINOMEscan panel screen; format: binding; settings: read-out: Percent Control(%)
T13 construct: purchased DiscoveRx KINOMEscan (Ambit Biosciences)

[16] = molecular target: T14, CDK8 (Homo sapiens, UniProt P49336); experiment: KINOMEscan panel screen; format: binding; settings: read-out: Percent Control(%)
T14 construct: purchased DiscoveRx KINOMEscan (Ambit Biosciences)

[17] = test system: MV4-11 tumor xenograft; experiment: MV4-11 tumor xenograft model; format: in vivo
Protocol: Female 5- to 6-week-old NOD-SCID mice (Beijing HFK Bioscience) were housed in a sterile environment and fed a standard diet ad libitum. […] A 100- μl aliquot of the cell suspension was injected subcutaneously into the hind flank of each mouse to establish the xenograft model. […] The tumor volume was calculated using the following formula: volume = a × b^2/2 (a, long diameter; b, short diameter).
Paraffin-embedded tumors were subjected to immunostaining with Ki67 (Thermo Fisher), transferase-mediated dUTP nick-end labeling (TUNEL, Thermo Fisher). The representative images were taken on a LEICA DM 2500 microscope with a LEICA DFC425 C camera. Image acquisition software: LAS V3.7.
(a) MV4-11 cells (10^7 cells/mouse) were s.c. inoculated into NOD-SCID mice. […] The tumor volume and body weight were measured every 3 days during the treatment. The mean values ± SD are shown. […] Ki67 and TUNEL were detected with immunohistochemical. Representative images were shown. […] Tumors were harvested at the indicated time points, and the FLT3 signaling pathway was detected using western blot assays. The experiments were performed on three groups of mice. The results of the other two groups are given in Supplementary Data (Supplementary Fig. S8). […] The results shown in the histogram are the statistic data of three groups of mice. ns, not statistically significant, *P < 0.05, **P < 0.01. (e) The same harvested tumors were detected using real-time qPCR assays to test the expression of AXIN2 and NKD1 (the target genes of Wnt/β-catenin pathway). All results were normalized to the level of GAPDH (mean ± SEM from triplicate groups). ns, not statistically significant, *P < 0.05, **P < 0.01. (f) Kaplan-Meier plot of survival. […] The plasma concentrations were determined using liquid–liquid extraction followed by high-performance liquid chromatography (HPLC) with tandem mass spectrometric detection.

[18] = molecular target: T15, EGFR(G719C) (Homo sapiens, UniProt P00533, G719C); experiment: KINOMEscan panel screen; format: binding; settings: read-out: Percent Control(%)
T15 construct: purchased DiscoveRx KINOMEscan (Ambit Biosciences)

[19] = molecular target: T16, CAMK2A (Homo sapiens, UniProt Q9UQM7); experiment: KINOMEscan panel screen; format: binding; settings: read-out: Percent Control(%)
T16 construct: purchased DiscoveRx KINOMEscan (Ambit Biosciences)

[20] = molecular target: T17, DDR1 (Homo sapiens, UniProt Q08345); experiment: KINOMEscan panel screen; format: binding; settings: read-out: Percent Control(%)
T17 construct: purchased DiscoveRx KINOMEscan (Ambit Biosciences)

[21] = molecular target: T18, MELK (Homo sapiens, UniProt Q14680); experiment: KINOMEscan panel screen; format: binding; settings: read-out: Percent Control(%)
T18 construct: purchased DiscoveRx KINOMEscan (Ambit Biosciences)

[22] = molecular target: T19, CTK (Homo sapiens, UniProt P42679); experiment: KINOMEscan panel screen; format: binding; settings: read-out: Percent Control(%)
T19 construct: purchased DiscoveRx KINOMEscan (Ambit Biosciences)

[23] = molecular target: T20, LATS2 (Homo sapiens, UniProt Q9NRM7); experiment: KINOMEscan panel screen; format: binding; settings: read-out: Percent Control(%)
T20 construct: purchased DiscoveRx KINOMEscan (Ambit Biosciences)

[24] = molecular target: T21, FLT3 (Homo sapiens, UniProt P36888); experiment: KINOMEscan panel screen; format: binding; settings: read-out: Percent Control(%)
T21 construct: purchased DiscoveRx KINOMEscan (Ambit Biosciences)

T3 sequence (Q96Q40 whole entry): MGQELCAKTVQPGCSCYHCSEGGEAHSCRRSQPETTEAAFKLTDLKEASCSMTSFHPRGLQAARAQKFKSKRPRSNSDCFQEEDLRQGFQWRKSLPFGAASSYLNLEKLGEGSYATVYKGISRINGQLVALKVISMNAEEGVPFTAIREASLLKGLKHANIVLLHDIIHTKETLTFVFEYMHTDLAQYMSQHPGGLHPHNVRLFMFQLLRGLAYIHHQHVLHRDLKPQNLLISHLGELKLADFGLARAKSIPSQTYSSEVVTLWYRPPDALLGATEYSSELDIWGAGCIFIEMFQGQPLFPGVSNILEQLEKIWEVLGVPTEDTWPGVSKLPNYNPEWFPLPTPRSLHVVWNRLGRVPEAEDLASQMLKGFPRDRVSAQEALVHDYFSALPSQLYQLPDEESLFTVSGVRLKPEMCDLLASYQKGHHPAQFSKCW
T14 sequence (P49336 whole entry): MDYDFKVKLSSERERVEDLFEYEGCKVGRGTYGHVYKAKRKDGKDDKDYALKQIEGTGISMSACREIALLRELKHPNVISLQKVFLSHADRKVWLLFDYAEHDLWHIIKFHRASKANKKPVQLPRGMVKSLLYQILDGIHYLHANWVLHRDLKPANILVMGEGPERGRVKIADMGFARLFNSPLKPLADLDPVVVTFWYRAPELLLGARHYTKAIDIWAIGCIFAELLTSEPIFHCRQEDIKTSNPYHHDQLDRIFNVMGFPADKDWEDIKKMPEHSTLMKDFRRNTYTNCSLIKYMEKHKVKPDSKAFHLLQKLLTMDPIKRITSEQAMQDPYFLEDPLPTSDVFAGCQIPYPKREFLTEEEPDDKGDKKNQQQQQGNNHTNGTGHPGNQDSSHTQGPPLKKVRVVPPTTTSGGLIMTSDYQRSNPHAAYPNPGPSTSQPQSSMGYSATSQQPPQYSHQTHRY
T5 sequence (P35916 25-1363): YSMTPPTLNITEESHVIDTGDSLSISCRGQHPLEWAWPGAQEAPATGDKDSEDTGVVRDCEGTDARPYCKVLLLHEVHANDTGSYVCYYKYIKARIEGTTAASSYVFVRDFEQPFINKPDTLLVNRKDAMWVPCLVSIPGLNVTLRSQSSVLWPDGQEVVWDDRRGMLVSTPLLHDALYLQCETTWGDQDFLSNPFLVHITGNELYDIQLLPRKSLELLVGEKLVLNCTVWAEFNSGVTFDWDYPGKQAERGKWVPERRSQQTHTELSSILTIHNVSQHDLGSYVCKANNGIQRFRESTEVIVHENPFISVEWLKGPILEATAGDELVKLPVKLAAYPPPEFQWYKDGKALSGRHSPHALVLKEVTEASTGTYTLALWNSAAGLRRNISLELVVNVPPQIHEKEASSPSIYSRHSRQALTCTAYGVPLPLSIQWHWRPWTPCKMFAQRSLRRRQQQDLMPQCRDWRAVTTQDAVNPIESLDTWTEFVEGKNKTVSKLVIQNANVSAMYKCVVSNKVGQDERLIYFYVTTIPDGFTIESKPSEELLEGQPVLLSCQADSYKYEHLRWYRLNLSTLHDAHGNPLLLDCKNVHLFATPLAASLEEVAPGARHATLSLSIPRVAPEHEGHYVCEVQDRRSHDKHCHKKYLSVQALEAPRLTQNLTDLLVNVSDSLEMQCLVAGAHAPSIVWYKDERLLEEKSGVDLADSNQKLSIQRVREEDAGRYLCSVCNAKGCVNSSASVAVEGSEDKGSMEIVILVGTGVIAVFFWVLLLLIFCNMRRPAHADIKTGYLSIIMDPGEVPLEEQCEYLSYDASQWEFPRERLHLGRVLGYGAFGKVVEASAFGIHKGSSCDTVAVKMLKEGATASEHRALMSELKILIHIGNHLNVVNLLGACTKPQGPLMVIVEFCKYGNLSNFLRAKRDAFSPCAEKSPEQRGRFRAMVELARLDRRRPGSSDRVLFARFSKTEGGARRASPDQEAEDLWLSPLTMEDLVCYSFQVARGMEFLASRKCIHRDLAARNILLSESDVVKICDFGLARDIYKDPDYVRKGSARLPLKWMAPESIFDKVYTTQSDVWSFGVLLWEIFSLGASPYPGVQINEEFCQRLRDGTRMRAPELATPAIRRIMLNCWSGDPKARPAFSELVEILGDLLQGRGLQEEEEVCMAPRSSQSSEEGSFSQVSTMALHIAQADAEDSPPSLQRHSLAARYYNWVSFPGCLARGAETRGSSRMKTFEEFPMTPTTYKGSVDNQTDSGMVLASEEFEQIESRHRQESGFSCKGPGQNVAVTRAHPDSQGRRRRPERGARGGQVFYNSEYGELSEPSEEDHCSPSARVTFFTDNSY
T13 sequence (O95819 whole entry): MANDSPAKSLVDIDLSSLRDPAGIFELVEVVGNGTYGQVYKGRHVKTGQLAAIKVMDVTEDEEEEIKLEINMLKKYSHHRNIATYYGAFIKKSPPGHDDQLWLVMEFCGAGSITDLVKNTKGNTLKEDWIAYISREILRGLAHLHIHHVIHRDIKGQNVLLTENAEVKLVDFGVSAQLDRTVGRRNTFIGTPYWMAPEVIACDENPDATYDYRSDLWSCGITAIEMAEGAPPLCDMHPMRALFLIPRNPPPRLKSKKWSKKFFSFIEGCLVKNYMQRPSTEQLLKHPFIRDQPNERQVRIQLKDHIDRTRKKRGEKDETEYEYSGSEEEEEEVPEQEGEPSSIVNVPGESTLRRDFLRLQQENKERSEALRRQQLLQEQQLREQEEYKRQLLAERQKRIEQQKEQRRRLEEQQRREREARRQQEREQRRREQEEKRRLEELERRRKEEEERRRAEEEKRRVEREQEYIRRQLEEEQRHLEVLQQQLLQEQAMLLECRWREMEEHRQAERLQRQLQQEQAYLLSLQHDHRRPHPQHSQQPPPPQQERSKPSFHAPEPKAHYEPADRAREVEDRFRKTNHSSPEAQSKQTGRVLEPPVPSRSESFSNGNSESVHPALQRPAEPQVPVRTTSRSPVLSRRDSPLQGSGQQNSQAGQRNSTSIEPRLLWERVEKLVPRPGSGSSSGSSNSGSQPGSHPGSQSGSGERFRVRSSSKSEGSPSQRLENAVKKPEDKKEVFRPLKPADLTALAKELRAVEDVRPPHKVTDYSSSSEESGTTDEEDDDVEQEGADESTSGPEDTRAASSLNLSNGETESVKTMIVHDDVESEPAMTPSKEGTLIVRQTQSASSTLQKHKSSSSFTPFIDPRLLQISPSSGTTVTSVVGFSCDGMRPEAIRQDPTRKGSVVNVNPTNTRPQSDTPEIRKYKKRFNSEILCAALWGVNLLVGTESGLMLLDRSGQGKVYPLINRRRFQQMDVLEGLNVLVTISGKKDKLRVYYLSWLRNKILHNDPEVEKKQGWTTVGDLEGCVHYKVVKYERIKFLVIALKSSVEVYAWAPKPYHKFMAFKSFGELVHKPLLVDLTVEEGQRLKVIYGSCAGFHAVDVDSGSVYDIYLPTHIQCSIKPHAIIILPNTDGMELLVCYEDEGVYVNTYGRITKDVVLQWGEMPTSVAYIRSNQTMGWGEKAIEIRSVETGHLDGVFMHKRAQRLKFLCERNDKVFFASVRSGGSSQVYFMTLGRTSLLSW
T10 sequence (Q02763 23-1124): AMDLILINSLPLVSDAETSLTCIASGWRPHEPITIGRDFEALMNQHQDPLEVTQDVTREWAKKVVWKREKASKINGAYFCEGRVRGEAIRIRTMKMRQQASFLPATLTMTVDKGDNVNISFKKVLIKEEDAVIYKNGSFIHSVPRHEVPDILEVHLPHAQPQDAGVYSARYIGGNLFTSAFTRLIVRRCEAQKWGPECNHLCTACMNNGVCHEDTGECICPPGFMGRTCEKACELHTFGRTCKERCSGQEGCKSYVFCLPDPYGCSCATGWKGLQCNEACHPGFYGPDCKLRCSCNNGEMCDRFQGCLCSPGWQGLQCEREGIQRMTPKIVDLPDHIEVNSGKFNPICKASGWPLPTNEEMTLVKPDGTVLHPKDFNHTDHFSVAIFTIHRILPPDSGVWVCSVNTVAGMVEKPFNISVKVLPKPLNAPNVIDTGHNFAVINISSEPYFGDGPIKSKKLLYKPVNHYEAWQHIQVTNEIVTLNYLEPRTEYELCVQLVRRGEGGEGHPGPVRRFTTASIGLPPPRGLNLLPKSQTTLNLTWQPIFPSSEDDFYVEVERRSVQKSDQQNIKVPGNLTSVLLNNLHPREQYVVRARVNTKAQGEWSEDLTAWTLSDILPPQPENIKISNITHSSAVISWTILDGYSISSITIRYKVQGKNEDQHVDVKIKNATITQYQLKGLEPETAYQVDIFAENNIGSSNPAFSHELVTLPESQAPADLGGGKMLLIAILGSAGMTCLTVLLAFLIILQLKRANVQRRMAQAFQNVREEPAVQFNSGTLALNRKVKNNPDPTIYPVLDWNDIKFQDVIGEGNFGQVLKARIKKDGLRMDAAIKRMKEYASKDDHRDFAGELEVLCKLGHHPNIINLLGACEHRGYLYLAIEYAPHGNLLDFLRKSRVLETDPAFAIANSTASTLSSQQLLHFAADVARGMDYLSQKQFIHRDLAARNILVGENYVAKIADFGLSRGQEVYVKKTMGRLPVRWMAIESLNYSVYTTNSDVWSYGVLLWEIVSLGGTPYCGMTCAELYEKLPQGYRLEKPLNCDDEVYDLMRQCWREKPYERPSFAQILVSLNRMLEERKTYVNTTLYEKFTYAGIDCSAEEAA
T16 sequence (Q9UQM7 whole entry): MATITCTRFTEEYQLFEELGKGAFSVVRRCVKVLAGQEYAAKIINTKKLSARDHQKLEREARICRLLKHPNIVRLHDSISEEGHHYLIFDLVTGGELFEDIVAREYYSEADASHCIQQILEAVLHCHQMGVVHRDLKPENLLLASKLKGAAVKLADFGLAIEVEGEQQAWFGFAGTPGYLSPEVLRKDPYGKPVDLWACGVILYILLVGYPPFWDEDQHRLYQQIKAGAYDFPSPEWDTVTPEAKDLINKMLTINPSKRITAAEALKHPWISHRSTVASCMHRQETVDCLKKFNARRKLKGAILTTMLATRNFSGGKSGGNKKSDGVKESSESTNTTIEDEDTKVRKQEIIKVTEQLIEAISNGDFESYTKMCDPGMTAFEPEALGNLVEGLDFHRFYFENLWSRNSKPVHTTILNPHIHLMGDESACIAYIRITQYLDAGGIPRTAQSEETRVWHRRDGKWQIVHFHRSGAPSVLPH

Question: For O=C(Nc1ccc(Oc2ncnc3[nH]ncc23)cc1)Nc1ccc(Cl)c(C(F)(F)F)c1 [Compound 1, 1-(4-(1H-pyrazolo[3,4-d]pyrimidin-4-yloxy)phenyl)-3-(4-chloro-3-(trifluoromethyl)phenyl)urea], which IC50 [1] is on record?
Answer: > 10 µM

Question: What does the source list for CC(C)(C)c1cc(NC(=O)Nc2ccc(Oc3ncnc4[nH]ncc34)c(F)c2)no1 [SKLB-677, 1-(4-(1H-pyrazolo[3,4-d]pyrimidin-4-yloxy)-3-fluorophenyl)-3-(5-tert-butylisoxazol-3-yl)urea]?
Answer: remaining binding at 10 µM [2]: 36%; remaining binding at 10 µM [3]: 25%; mean survival time (MST) ([4]; 3 mg/kg/day orally for 30 days): 66 days; number of Ki67-positive cells in femur BM ([4]; 10 mg/kg/d for 6 days): obviously decreased; mean survival time (MST) ([4]; 10 mg/kg/day orally for 30 days): 78.5 days; mean survival time (MST) ([4]; 30 mg/kg/day orally for 30 days): 85.5 days; remaining binding at 10 µM [5]: 0.85%; remaining binding at 10 µM [6]: 10%; remaining binding at 10 µM [7]: 0%; remaining binding at 10 µM [8]: 100%; remaining binding at 10 µM [9]: 0%; remaining binding at 10 µM [10]: 29%; remaining binding at 10 µM [11]: 42%; Kd [12]: 0.099 µM; remaining binding at 10 µM [13]: 57%; Kd [14]: > 10 µM; remaining binding at 10 µM [15]: 0%; remaining binding at 10 µM [16]: 3%; tumor inhibition rate ([17]; 1 mg/kg/d orally once per day for 21 days): 66%; tumor response ([17]; 3 mg/kg/d orally for 8 days): complete tumor regression; toxicity in xenograft mice ([17]; 10 mg/kg/d or 3 mg/kg/d orally): without obvious toxicity; tumor response ([17]; 10 mg/kg/d orally for 3 days): complete tumor regression; Ki67-positive cells in tumors compared with control group ([17]; immunohistochemistry): evidently fewer; percentage of TUNEL-positive cells in tumors compared with vehicle ([17]; immunohistochemistry): increased; remaining binding at 10 µM [18]: 37%; remaining binding at 10 µM [19]: 73%; remaining binding at 10 µM [20]: 3.6%; remaining binding at 10 µM [21]: 56%; remaining binding at 10 µM [22]: 37%; remaining binding at 10 µM [23]: 26%; remaining binding at 10 µM [24]: 2%

— publication PMC4620497 (Scientific Reports, 2015)
